Data reported in patent US20240269120A1, “Method for Treating an Autoimmune and Inflammatory Disease” (Cellestia Biotech AG, priority 2021, published 2024).
Where “and” joins values, the source holds several entries; their conditions need not be identical. Equal entries are not always repeated.

Assays:
[1] = test system: IL-6; test: Cytokine analysis in allogeneic bone marrow transplant (LEGENDplex): IL-6; assay type: in vivo, mouse; conditions: allo-BM+splenocyte transplanted mice, day 36, vs vehicle; FIG. 6
Protocol: (§1) Allogeneic Bone marrow transplant: Recipient Balb/c mice were irradiated twice 3.75Gy (T=0 and T=4 h) in an X-ray source irradiator before transplantation at T=8 h. Treatment with antibiotics (Nopil) and analgesic (Dafalgan) was supplemented to drinking water 4 days before injection. Irradiated recipient Balb/c mice were transplanted with 5 million T cell depleted bone marrow+1 million splenocytes. Allogeneic recipient animals were treated with vehicle or 6-(4-tert-butylphenoxy)pyridin-3-amine subcutaneously at 20 mg/kg for two days immediately after allo-BM transplant, given a 10 days treatment holiday to recover body weight loss due to whole body irradiation and then treatment continued at 20 mg/kg. […] Animals were monitored for symptoms of GvHD development (severe body weight loss, alopecia and diarrhea.
(§2) Cytokine analysis in allogeneic Bone marrow transplant: The recipient animals were bled on day 36 and blood plasma was extracted to determine inflammatory cytokine concentration (IFNγ, IL-6, IL-17a) by LEGENDplex™ multiplexed assay.

[2] = test system: IFNG; test: ELISA of supernatant from activated human PBMC cultures: IFNG; assay type: cell-based; conditions: control 0%
Protocol: (§3) Human PBMCs and mouse splenocyte in vitro stimulation and treatment: Human peripheral blood mononuclear cells (PBMCs) and mouse splenocytes from donors were stimulated in vitro with anti-CD3 and anti-CD28 antibodies. The stimulated cells were simultaneously treated with compounds for 96 hours. The T cells were profiled for different cell surface and intracellular markers and proliferation by flow cytometry.
(§4) ELISA assay: Supernatant from activated human PBMC cultures described above was separated from cells at the end of culture time. Key cytokines (IL-6, IFN-γ, IL-17) were quantified using sandwich ELISA reagents set (Diaclone) following manufacturer's instruction manual.

[3] = test system: IL-10; test: Cytokine profiling in human patient plasma (MSD): IL-10; assay type: in vivo; conditions: vs baseline
Protocol: (§5) Cytokine profiling in human plasma samples: Plasma samples from patients treated with 6-(4-tert-butylphenoxy)pyridin-3-amine were collected and stored at −80° C. until analysed. Cytokine and chemokine profiling was performed using MesoScale Discovery (MSD) platform and three assay panels: 1) Pro-inflammatory panel human, 2) Human IL-6 assay S-Plex, 3) Human IL-10 assay S-Plex.

[4] = test system: IL-6; test: ELISA of supernatant from activated human PBMC cultures: IL-6; assay type: cell-based; conditions: control 0%
Protocol: as §3, §4

[5] = test system: activated CD8 T cells; test: Cell proliferation assay (Cell trace violet), activated CD8 T cells; assay type: cell-based; conditions: control 0%
Protocol: (§6) Following PBMC injections, mice were treated with vehicle or 6-(4-tert-butylphenoxy)pyridin-3-amine or Ruxolitinib starting at day 0. Mice were monitored from 60-85 days for symptoms of GvHD and scored according to a standard clinical scoring system for GvHD (Naserian et al., 2018) (see table 1) and a cumulative clinical score was obtained by addition of clinical score for individual parameters. A maximum score of 6 is measured when reaching endpoint. Cell proliferation assay: The effect of compounds on T cell proliferation was quantified using Cell trace violet (CTV). PBMCs/splenocytes were incubated with CTV for 20 minutes at 37° C. Cells were washed twice with RPMI complete medium. CTV labelled cells were stimulated with anti-CD3 and anti-CD28 antibodies and treated with control or compounds and cultured at 37° C. for 96 hours. The cell division index was measured by flow cytometry.
Flow cytometry analysis: Flow cytometry analysis was performed to quantify cell surface and intracellular markers expression and measure cell division index.

[6] = test system: NSG mice injected with human PBMCs (GvHD); test: Humanized GvHD mouse model, ex vivo pre-treated PBMCs plus in vivo treatment; conditions: sum of individual scores; label = ex vivo PBMC treatment/in vivo treatment; DMSO/Vehicle 7.8
Protocol: (§7) Humanized GvHD mouse model: 6-8 weeks old NSG mice were intraperitoneally injected with 10 million human peripheral blood mononuclear cells (PBMCs) as below:
(§8) A cumulative GvHD clinical score was calculated by addition of scores for individual parameters (e.g. cumulative score=BWL+posture+activity+fur texture+skin integrity+paleness).
Ex-vivo pre-treatment of PBMCs and in-vivo treatment of mice: Human PBMCs were ex-vivo treated with either DMSO or 6-(4-tert-butylphenoxy)pyridin-3-amine and then intraperitoneally injected into NSG mice. Mice were in vivo treated with different compounds as below: • i. DMSO ex vivo hPBMCs treatment (7 hrs), plus vehicle in vivo treatment • ii. DMSO ex vivo hPBMCs treatment (7 hrs), plus 6-(4-tert-butylphenoxy)pyridin-3-amine in vivo treatment for 3 days • iii. 6-(4-tert-butylphenoxy)pyridin-3-amine ex vivo hPBMCs treatment (7 hrs), plus 6-(4-tert-butylphenoxy)pyridin-3-amine in vivo treatment for 3 days • iv. DMSO ex vivo PBMCs treatment (7 hrs) plus Ruxolitinib in vivo treatment for 3 days • v. 6-(4-tert-butylphenoxy)pyridin-3-amine ex vivo hPBMCs treatment (7 hrs), plus Ruxolitinib in vivo treatment for 3 days
as §6

[7] = test system: NSG mice injected with human PBMCs (GvHD); test: Humanized GvHD mouse model, ex vivo treated human PBMCs, no in vivo treatment; design: GvHD clinical score: Body weight loss: dose or concentration left out as unconfirmed; conditions: day 21
Protocol: as §7
Ex vivo treatment of PBMCs: 10 million human PBMCs from healthy donor #1 were ex-vivo treated with DMSO and […] of 6-(4-tert-butylphenoxy)pyridin-3-amine for 6 hours. Ex-vivo treated PBMCs were intraperitoneally injected into mice (10 million per mouse). 10 NSG mice were injected with DMSO pre-treated PBMCs and 10 NSG mice were injected with 6-(4-tert-butylphenoxy)pyridin-3-amine pre-treated PBMCS. Following PBMC injections mice were monitored for up to 42 days for symptoms of GvHD development as measured by standardized GvHD clinical score system. No in-vivo drug treatment was administered.
as §8

[8] = test system: IL-17; test: Cytokine analysis in allogeneic bone marrow transplant (LEGENDplex): IL-17; assay type: in vivo, mouse; conditions: allo-BM+splenocyte transplanted mice, day 36, vs vehicle; FIG. 6
Protocol: as §1, §2

[9] = test system: regulatory T cells; test: Regulatory T cells in allo-BM + splenocyte transplanted mice; assay type: in vivo, mouse
Protocol: as §1

[10] = test system: IL-6; test: Cytokine profiling in human patient plasma (MSD): IL-6; assay type: in vivo; conditions: human patients, day 3 on treatment vs baseline pre-treatment
Protocol: as §5

[11] = PBMCs pre-treated ex-vivo, DMSO group 0.71

CC(C)(C)c1ccc(Oc2ccc(N)cn2)cc1 [6-(4-tert-butylphenoxy)pyridin-3-amine]
IL-6 in blood plasma [1]: downregulation | Percentage downregulation of IFNG [2]: 10% | Percentage upregulation of IL-10 in blood plasma [3]: 60% | Percentage downregulation of IL-6 [4]: 61% | Percentage inhibition of CD8 T cells (proliferation) [5]: 56% | Cumulative GvHD score [6]: decreased cumulative GvHD score significantly | GvHD clinical score: Body weight loss ([7]; PBMCs pre-treated ex-vivo (6 hours), DMSO group 1.0): 0 | GvHD clinical score: Skin integrity ([7]; PBMCs pre-treated ex-vivo, DMSO group 0.14): 0 | GvHD clinical score: Fur texture ([7]; PBMCs pre-treated ex-vivo, DMSO group 0.57): 0.14 | GvHD clinical score: Activity score [7, 11]: 0.14 | GvHD clinical score: Paleness [7, 11]: 0 | GvHD clinical score: Posture [7, 11]: 0.14 | Cumulative GvHD score ([7]; sum of individual scores, DMSO group 3.84): decreased cumulative GvHD score significantly and 0.42 | IL-17 in blood plasma [8]: downregulation | regulatory T cells [9]: expansion of regulatory T cells | Percentage downregulation of IL-6 in blood plasma [10]: 57% (day 3 on treatment)
